This is an account of results in US9200067B2, “Molecular marker CUEDC2 protein for prognostic determination of breast cancer endocrinology therapy” (Biomedical Analysis Center of Academy of Military Medical …, priority 2011, dated 2015).

In experiment [1] the test system is MCF-7 cells stably transfected with CUEDC2. The experiment can be described thus: Cell growth by cell counting under different doses of tamoxifen. In kind it is cell-based. As to the method: (§1) MCF-7 cells stably transfected with CUEDC2 were treated with different doses of tamoxifen, and then the cell growth was observed by a cell counting method. […] In order to eliminate nonspecific effects of over expression of CUEDC2 on cells growth, the inventors knocked down the CUEDC2 expression in the cells and did the same cell growth experiment. […] In order to verify the above conclusion, the inventors further conducted animal experiments. 5×10^6 MCF-7/vector or MCF-7/CUEDC2 cells were injected into the mammary fat pad of ovariectomized nude mice, and estrogen sustained-release tablets were embedded subcutaneously. When tumors grew to 100-150 mm^3, nude mice were divided into two groups randomly, and embedded with tamoxifen or control placebo pills subcutaneously.

For a further experiment, the system named is MCF-7 cells. The experiment can be described thus: Crystal violet colony-formation assay. In kind it is cell-based.
Experiment [2] has as its system MCF-7/vector or MCF-7/CUEDC2 cells. The experiment can be described thus: Tumor formation in ovariectomized nude mice (mammary fat pad xenograft). In kind it is in vivo. The settings on record: tamoxifen sustained-release tablets subcutaneously, vs placebo. As to the method:
4-week-old female nude mice were purchased from Animal Laboratory Center of the Academy of Military Medical Sciences; the Cell Titer Glo Luminescent Cell Viability Assay was purchased from Promega Company; the Estrogen and tamoxifen sustained-release tablets were purchased from Innovative Research of America.
as §1

Entries after “also recorded” stand apart in the source; their conditions may differ.

For `CC/C(=C(\c1ccccc1)c1ccc(OCCN(C)C)cc1)c1ccccc1` [tamoxifen], the “sensitivity of cell growth to tamoxifen” value in experiment [1] (MCF-7 cells over expressing CUEDC2, different doses of tamoxifen) is “insensitive”. In addition, in experiment [1] (MCF-7 cells over expressing CUEDC2 knocked down by CUEDC2 siRNA), the “sensitivity of cells to tamoxifen after CUEDC2 knockdown” value is “restored the sensitivity”. Besides, the entries for the “sensitivity to tamoxifen-induced cell death” value in the experiment with MCF-7 cells (cells over expressing CUEDC2) and in the experiment on MCF-7 cells (control MCF-7 empty vector cells) were “insensitive” and “sensitive”, respectively. Besides, the tumor growth entry is listed as “could not effectively inhibit; also recorded: cannot inhibit tumor growth effectively” in experiment [2] (MCF-7/CUEDC2 cells in nude mice) and “significantly inhibit” in experiment [2] (MCF-7/vector cells in nude mice).
